From patent US20100292205A1, “Pyrimidone Compounds As GSK-3 Inhibitors” (PFIZER INC., priority 2006, published 2010)

biological target: T1, Recombinant human GSK3β (Homo sapiens, UniProt P49841); test: GSK-3β (Glycogen Synthase Kinase) cell free enzyme assay; format: biochemical; conditions: 1 μM; Examples 157-199; read-out: Percent inhibition at 1 μM
T1 construct: His-tag; made in house; host or cells: Sf9 insect cells / baculovirus
Procedure, shortened: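 Recombinant human GSK3β, expressed in SF9/baculovirus cells and His-tag purified on Ni-NTA Superflow, was preincubated with test agent for 30 minutes at room temperature. Substrate mix was then added to start the reaction in 8 mM MOPS (pH 7.0), 10 mM magnesium acetate, 0.2 mM EDTA, 1 mM DTT, 2 uM cold ATP, 0.025 uCi/well [33P]ATP (120 uL) and 1.0 uM biotinylated peptide. Reactions ran at RT for 60 min.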

T1 sequence (P49841 whole entry): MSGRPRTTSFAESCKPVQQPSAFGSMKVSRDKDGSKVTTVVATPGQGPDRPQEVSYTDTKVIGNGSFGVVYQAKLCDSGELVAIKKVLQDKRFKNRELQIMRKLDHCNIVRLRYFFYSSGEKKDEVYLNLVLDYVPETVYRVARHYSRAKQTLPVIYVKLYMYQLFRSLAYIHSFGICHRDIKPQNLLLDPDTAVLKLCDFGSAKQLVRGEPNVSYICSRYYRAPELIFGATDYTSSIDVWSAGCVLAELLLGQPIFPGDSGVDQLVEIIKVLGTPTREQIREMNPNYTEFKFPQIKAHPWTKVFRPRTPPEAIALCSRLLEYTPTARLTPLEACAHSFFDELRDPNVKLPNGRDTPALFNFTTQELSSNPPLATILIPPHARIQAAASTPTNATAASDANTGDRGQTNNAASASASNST

| Compound | inhibition at 1 µM [%] |
| --- | --- |
| Cn1c(NC2CCCCN(S(=O)(=O)c3ccccc3)C2)nc(-c2ccncc2)cc1=O (stereo not shown) [Example 173, 3-Methyl-2-{[1-(phenylsulfonyl)azepan-3-yl]amino}-6-pyridin-4-ylpyrimidin-4(3H)-one] | 51 |
| CN(c1nc(-c2ccncc2)cc(=O)n1C)C1CCCN(S(=O)(=O)Cc2ccccc2)CC1 (stereo not shown) [Example 196, 2-{[1-(Benzylsulfonyl)azepan-4-yl](methyl)amino}-3-methyl-6-pyridin-4-ylpyrimidin-4(3H)-one] | 94 |
| CN(c1nc(-c2ccncc2)cc(=O)n1C)[C@@H]1CC[C@H]2N(S(C)(=O)=O)CC[C@@]2(C)C1 [Example 162, 3-Methyl-2-{methyl[(3a,S5,R7,aR)-3a-methyl-1-(methylsulfonyl)octahydro-1H-indo-5-yl]amino}-6-pyridin-4-ylpyrimidin-4(3H)-one] | 84 |

same assay, conditions: 1 μM; Examples 201-221

| Compound | Percent inhibition at 1 μM [%] |
| --- | --- |
| Methyl (1R,5S)-8-(1-methyl- 6-oxo-4-pyridin-4-yl-16- dihydropyrimidin-2-yl)-38- diazabicyclo[3.2.1]octane-3- carboxylate [Example 202] | 93 |

same assay, conditions: 1 μM; Examples 236-262; read-out: Percent inhibition at 1 μM

| Compound | inhibition at 1 µM [%] |
| --- | --- |
| CN(c1nc(-c2ccncc2)cc(=O)n1C)C1CCCN(Cc2ccccc2)CC1 (stereo not shown) [Example 255, 2-[(1-Benzylazepan-4-yl)(methyl)amino]-3-methyl-6-pyridin-4-ylpyrimidin-4(3H)-one] | 76 |
| CN(c1nc(-c2ccncc2)cc(=O)n1C)[C@H]1CC[C@H]2N(Cc3ccccc3)CC[C@@]2(C)C1 [Example 254, 2-{[(3a,S5,S7,aR)-1-Benzyl-3a-methyloctahydro-1H-indol-5-yl](methyl)amino}-3-methyl-6-pyridin-4-ylpyrimidin-4(3H)-one] | 47 |
| CN(c1nc(-c2ccncc2)cc(=O)n1C)C1CCN(Cc2ccccc2)C1 (stereo not shown) [Example 256, 2-[(1-Benzylpyrrolidin-3-yl)(methyl)amino]-3-methyl-6-pyridin-4-ylpyrimidin-4(3H)-one] | 83 |

same assay, conditions: 1 μM; GSK-3β cell free enzyme assay; Examples 42-60; read-out: Percent inhibition at 1 μM

| Compound | inhibition at 1 µM [%] |
| --- | --- |
| CC(=O)N1CCC(Nc2nc(-c3ccncc3)cc(=O)n2C)CC1 [Example 47, 2-[(1-Acetylpiperidin-4-yl)amino]-3-methyl-6-pyridin-4-ylpyrimidin-4(3H)-one] | 44 |
| CCN(c1nc(-c2ccncc2)cc(=O)n1C)C1CCN(C(C)=O)C1 (stereo not shown) [Example 54, 2-[(1-Acetylpyrrolidin-3-yl)(ethyl)amino]-3-methyl-6-pyridin-4-ylpyrimidin-4(3H)-one] | 64 |
| CC(=O)N[C@@H]1CC[C@@H](Nc2nc(-c3ccncc3)cc(=O)n2C)C1 [Example 60, N-{(1R,3R)-3-[(1-Methyl-6-oxo-4-pyridin-4-yl-16-dihydropyrimidin-2-yl)amino]cyclopentyl} acetamide] | 77 |
| CC(=O)N1[C@@H]2CC[C@H]1CN(c1nc(-c3ccncc3)cc(=O)n1C)C2 [Example 44, 2-[(1R,5S)-3-Acetyl-38-diazabicyclo[3.2.1]oct-8-yl]-3-methyl-6-pyridin-4-ylpyrimidin-4(3H)-one] | 72 |

same assay, conditions: cell free enzyme assay; Examples 1-35

| Compound | IC50 [nM] |
| --- | --- |
| Cn1c(NCC2CCN(C(=O)OC(C)(C)C)C2)nc(-c2ccncc2)cc1=O (stereo not shown) [Example 34, tert-butyl 3-{[(1-Methyl-6-oxo-4-pyridin-4-yl-1,6-dihydropyrimidin-2-yl)amino]methyl} pyrrolidine-1-carboxylate] | 113 |
| Cn1c(NC2CCCCN(C(=O)OC(C)(C)C)C2)nc(-c2ccncc2)cc1=O (stereo not shown) [Example 20, tert-butyl 3-[(1-Methyl-6-oxo-4-pyridin-4-yl-1,6-dihydropyrimidin-2-yl)amino]azepane-1-carboxylate] | 24.1 |
| Cn1c(NCC2OCCc3ccccc32)nc(-c2ccncc2)cc1=O (stereo not shown) [Example 3, 2-[(3,4-dihydro-1H-Isochromen-1-ylmethyl)amino]-3-methyl-6-pyridin-4-ylpyrimidin-4(3H)-one] | 23 |

same assay, conditions: cell free enzyme assay; Examples 62-155

| Compound | IC50 [nM] |
| --- | --- |
| CN(c1nc(-c2ccncc2F)cc(=O)n1C)[C@H]1[C@@H]2CN(C(=O)c3ccccc3F)C[C@@H]21 [Example 118, 2-{[(1R,5S,6s)-3-(2-Fluorobenzoyl)-3-azabicyclo[3.1.0]hex-6-yl](methyl)amino}-6-(3-fluoropyridin-4-yl)-3-methylpyrimidin-4(3H)-one] | 1.11 |
| Cn1c(NCC2CN(C(=O)Cc3ccccc3)C2)nc(-c2ccncc2)cc1=O [Example 95, 3-Methyl-2-({[1-(phenylacetyl)azetidin-3-yl]methyl}amino)-6-pyridin-4-ylpyrimidin-4(3H)-one] | 1380 |
| CN(c1nc(-c2ccncc2F)cc(=O)n1C)[C@H]1[C@@H]2CN(C(=O)c3ccc(C#N)cc3)C[C@@H]21 [Example 136, 4-{[(1R,5S,6s)-6-{[4-(3-Fluoropyridin-4-yl)-1-methyl-6-oxo-1,6-dihydropyrimidin-2-yl](methyl)amino}-3-azabicyclo[3.1.0]hex-3-yl]carbonyl}benzonitrile] | 42.6 |
| CC(C)C(=O)N1C[C@@H]2[C@H](C1)[C@H]2N(C)c1nc(-c2ccncc2F)cc(=O)n1C [Example 114, 6-(3-Fluoropyridin-4-yl)-2-{[(1R,5S,6s)-3-isobutyryl-3-azabicyclo[3.1.0]hex-6-yl](methyl)amino}-3-methylpyrimidin-4(3H)-one] | 15.3 |
| CCN(c1nc(-c2ccncc2)cc(=O)n1C)C1CCCN(C(=O)c2ccccc2)CC1 (stereo not shown) [Example 71, 2-[(1-Benzoylazepan-4-yl)(ethyl)amino]-3-methyl-6-pyridin-4-ylpyrimidin-4(3H)-one] | 36.3 |
| CN(c1nc(-c2ccncc2F)cc(=O)n1C)[C@H]1[C@@H]2CN(C(=O)c3cc(Cl)sc3Cl)C[C@@H]21 [Example 141, 2-[{(1R,5S,6s)-3-[(2,5-Dichloro-3-thienyl)carbonyl]-3-azabicyclo[3.1.0]hex-6-yl}(methyl)amino]-6-(3-fluoropyridin-4-yl)-3-methylpyrimidin-4(3H)-one] | 1.04 |
| CCN(c1nc(-c2ccncc2)cc(=O)n1C)C1CCCN(C(=O)c2ccccc2)C1 (stereo not shown) [Example 73, 2-[(1-Benzoylpiperidin-3-yl)(ethyl)amino]-3-methyl-6-pyridin-4-ylpyrimidin-4(3H)-one] | 345 |
| CN(c1nc(-c2ccncc2F)cc(=O)n1C)[C@H]1[C@@H]2CN(C(=O)c3ccc(C(F)(F)F)cc3)C[C@@H]21 [Example 122, 6-(3-Fluoropyridin-4-yl)-3-methyl-2-(methyl{(1R,5S,6s)-3-[4-(trifluoromethyl)benzoyl]-3-azabicyclo[3.1.0]hex-6-yl}amino)pyrimidin-4(3H)-one] | 15.1 |
| Cn1c(NC2CCN(C(=O)c3ccccc3)C2)nc(-c2ccncc2)cc1=O (stereo not shown) [Example 62, 2-[(1-Benzoylpyrrolidin-3-yl)amino]-3-methyl-6-pyridin-4-ylpyrimidin-4(3H)-one] | 77.5 |
| CCC(C)C(=O)N1C[C@@H]2[C@H](C1)[C@H]2N(C)c1nc(-c2ccncc2F)cc(=O)n1C (stereo partly drawn) [Example 103, 6-(3-Fluoropyridin-4-yl)-3-methyl-2-{methyl[(1R,5S,6s)-3-(2-methylbutanoyl)-3-azabicyclo[3.1.0]hex-6-yl]amino}pyrimidin-4(3H)-one] | 2.77 |
| CC(=O)O[C@@H](C)C(=O)N1C[C@@H]2[C@H](C1)[C@H]2N(C)c1nc(-c2ccncc2F)cc(=O)n1C [Example 119, (1S)-2-[(1R,5S,6R)-6-{[4-(3-Fluoropyridin-4-yl)-1-methyl-6-oxo-1,6-dihydropyrimidin-2-yl](methyl)amino}-3-azabicyclo[3.1.0]hex-3-yl]-1-methyl-2-oxoethyl acetate] | 32.9 |
| CN(c1nc(-c2ccncc2F)cc(=O)n1C)[C@H]1[C@@H]2CN(C(=O)CC(F)(F)F)C[C@@H]21 [Example 97, 6-(3-Fluoropyridin-4-yl)-3-methyl-2-{methyl[(1R,5S,6s)-3-(3,3,3-trifluoropropanoyl)-3-azabicyclo[3.1.0]hex-6-yl]amino}pyrimidin-4(3H)-one] | 55.4 |
| CN(c1nc(-c2ccncc2F)cc(=O)n1C)[C@H]1[C@@H]2CN(C(=O)CC(C)(C)C)C[C@@H]21 [Example 131, 2-{[(1R,5S,6s)-3-(3,3-Dimethylbutanoyl)-3-azabicyclo[3.1.0]hex-6-yl](methyl)amino}-6-(3-fluoropyridin-4-yl)-3-methylpyrimidin-4(3H)-one] | 1.57 |

same assay, conditions: cell free enzyme assay; Examples 222-234

| Compound | IC50 [nM] |
| --- | --- |
| COC(=O)N1CCCC(N(C)c2nc(-c3ccncn3)cc(=O)n2C)C1 (stereo not shown) [Example 223, Methyl 3-[methyl(1-methyl-6-oxo-1,6-dihydro-4,4′-bipyrimidin-2-yl)amino]piperidine-1-carboxylate] | 1.04 |

same assay, conditions: cell free enzyme assay; Examples 265-291

| Compound | IC50 [nM] |
| --- | --- |
| Cc1nn(C2CCCC2)c2nc(N3C[C@@H]4[C@H](C3)[C@H]4N(C)c3nc(-c4ccncc4F)cc(=O)n3C)[nH]c(=O)c12 [Example 277, 1-Cyclopentyl-6-[(1R,5S,6s)-6-{[4-(3-fluoropyridin-4-yl)-1-methyl-6-oxo-1,6-dihydropyrimidin-2-yl](methyl)amino}-3-azabicyclo[3.1.0]hex-3-yl]-3-methyl-1,5-dihydro-4H-pyrazolo[3,4-d]pyrimidin-4-one] | 51.7 |
| COc1ccc2nc(N3C[C@@H]4[C@H](C3)[C@H]4N(C)c3nc(-c4ccncc4F)cc(=O)n3C)sc2c1 [Example 289, 6-(3-Fluoropyridin-4-yl)-2-{[(1R,5S,6s)-3-(6-methoxy-1,3-benzothiazol-2-yl)-3-azabicyclo[3.1.0]hex-6-yl](methyl)amino}-3-methylpyrimidin-4(3H)-one] | 25.1 |
| CN(c1nc(-c2ccncc2F)cc(=O)n1C)[C@H]1[C@@H]2CN(c3nc4ccccc4s3)C[C@@H]21 [Example 283, 2-{[(1R,5S,6s)-3-(1,3-Benzothiazol-2-yl)-3-azabicyclo[3.1.0]hex-6-yl](methyl)amino}-6-(3-fluoropyridin-4-yl)-3-methylpyrimidin-4(3H)-one] | 55.7 |
